Reference: paper PMC11224556, “Next-generation of BBQ analogues that selectively target breast cancer” (Frontiers in Chemistry, 2024)
Like-named read-outs stand apart in the source and are kept apart here.

Assays:
Assay type in all cases: cell-based, human
[1] = tested on: MCF10A normal breast cells; experiment: MTT growth inhibition assay (72 h)
Excerpt: (§1) Each BBQ analogue, 2-14 was screened for their growth inhibition ability (GI50) in a broad panel of cancer cell lines and a non-cancer breast cell line (MCF10A), using the MTT growth inhibition assay (Table 1) ([Baker et al., 2021b]). The cancer panel comprised HT29 (colorectal), U87 (brain), SJ-G2 (brain), A2780 (ovary), Du145 (prostate), BE2-C (neuronal), MIA (pancreas), H460 (lung, ER+), A431 (vulva, ER+ (estrogen receptor positive)), and a wide selection of breast cancer cell lines with varying receptor status including MCF-7 (ER + luminal A), T47D (ER/PR+ (progesterone receptor positive)luminal A), ZR-75-1 (ER/PR + luminal A), BT-474 (ER/PR/HER2+ luminal B), SKBR-3 (HER2+), MDA-MB-468, BT20, and MDA-MB-231 (basal, triple negative (TN) for ER, PR, and HER2).
(§2) Stock solutions were prepared as follows and stored as 20 mM DMSO solutions at −20 °C. All cell lines were cultured in a humidified atmosphere 5% CO2 at 37 °C. The cancer cell lines were maintained in Dulbecco’s modified Eagle’s medium (DMEM) (Trace Biosciences, Australia) supplemented with 10% foetal bovine serum (FBS), 10 mM sodium bicarbonate, penicillin (100 IU/mL), streptomycin (100 μg/mL), and glutamine (4 mM). The non-cancer MCF10A cell line was cultured in DMEM:F12 (1:1) cell culture media, 5% heat inactivated horse serum, supplemented with penicillin (50 IU/mL), streptomycin (50 μg/mL), 20 mM Hepes, L-glutamine (2 mM), epidermal growth factor (20 ng/mL), hydrocortisone (500 ng/mL), cholera toxin (100 ng/mL), and insulin (10 μg/mL). The AhR reporter cell line HT29-Lucia™ (Invivogen, United States) was maintained in DMEM supplemented with 10% heat inactivated FBS, L-glutamine (2 mM), penicillin (100 IU/mL), streptomycin (100 μg/mL), 100 μg/mL Normocin™, and 100 μg/mL of the selective antibiotic Zeocin™. All cell lines were purchased from the American Type Culture Collection (ATCC), except for A2780 and A431 which were from the European Collection of Authenticated Cell Cultures (ECACC), and SJ-G2 cell line which was from Dr Mary Danks, St Jude Children’s Research hospital, Memphis, TN.
(§3) Cells in logarithmic growth were transferred to 96-well plates. Cytotoxicity was determined by plating cells in duplicate in 100 μL medium at a density of 2,500–4,000 cells/well in 96 well plates. On day 0, (24 h after plating) when the cells were in logarithmic growth 100 μL medium with or without the test agent was added to each well. After 72 h drug exposure growth inhibitory effects were evaluated using the MTT (3-[4,5-dimethylthiazol-2-yl]-2,5-diphenyltetrazolium bromide) assay with absorbance read at 540 nm. An eight-point dose response curve was produced, using MS Excel software. From these dose-response curves, the GI50 value was calculated, representing the drug concentration at which cell growth is 50% inhibited based on the difference between the optical density values on day 0 and those at the end of drug exposure ([Bradshaw et al., 2008]; [Zhang et al., 2009]). Each data point was conducted in duplicate and the mean ± S.E.M. calculated from four to five replicates (n = 4 or 5), which were performed on separate occasions and separate cell line passages. Where shown, significant test results were determined using T-test analysis at p < 0.01 and p < 0.05 with a two tail distribution.

Du145 (prostate) cells = experiment: MTT growth inhibition assay (72 h)
Excerpt: as §1, §2, §3

BT20 breast cancer cells = experiment: MTT growth inhibition assay (72 h)
Excerpt: as §1, §2, §3

U87 (brain) cells = experiment: MTT growth inhibition assay (72 h); settings: U87, Brain (GBM)
Excerpt: as §1, §2, §3

A2780 (ovary) cells = experiment: MTT growth inhibition assay (72 h)
Excerpt: as §1, §2, §3

MIA (pancreas) cells = experiment: MTT growth inhibition assay (72 h)
Excerpt: as §1, §2, §3

[2] = tested on: MDA-MB-468 breast cancer cells; experiment: MTT growth inhibition assay (72 h); settings: MDA-MB-468, Breast (TN)
Excerpt: as §1, §2, §3

HT29 (colorectal) cells = experiment: MTT growth inhibition assay (72 h)
Excerpt: as §1, §2, §3

H460 (lung) cells = experiment: MTT growth inhibition assay (72 h)
Excerpt: as §1, §2, §3

T47D breast cancer cells = experiment: MTT growth inhibition assay (72 h); settings: Breast (ER/PR)
Excerpt: as §1, §2, §3

A431 (vulva/skin) cells = experiment: MTT growth inhibition assay (72 h)
Excerpt: as §1, §2, §3

BE2-C (neuronal) cells = experiment: MTT growth inhibition assay (72 h); settings: Neuron
Excerpt: as §1, §2, §3

[3] = tested on: MCF-7 breast cancer cells; experiment: MTT growth inhibition assay (72 h)
Excerpt: as §1, §2, §3

SJ-G2 (brain) cells = experiment: MTT growth inhibition assay (72 h); settings: SJ-G2, Brain (GBM)
Excerpt: as §1, §2, §3

[4] = tested on: SKBR3 breast cancer cells; experiment: MTT growth inhibition assay (72 h)
Excerpt: as §1, §2, §3

[5] = tested on: BT474 breast cancer cells; experiment: MTT growth inhibition assay (72 h)
Excerpt: as §1, §2, §3

[6] = tested on: ZR-75-1 breast cancer cells; experiment: MTT growth inhibition assay (72 h); settings: ZR-75-1, Breast (ER/PR)
Excerpt: as §1, §2, §3

[7] = tested on: MDA-MB-231 breast cancer cells; experiment: MTT growth inhibition assay (72 h); settings: MDA-MB-231, Breast (TN)
Excerpt: as §1, §2, §3

[8] = tested on: broad panel of cancer cell lines and non-cancer breast cell line MCF10A; experiment: MTT growth inhibition: GI50 ranges and selectivity across the cell line panel
Excerpt: as §1, §2, §3

[9] = Homo sapiens, BT-20, BT20, Breast (TN)
[10] = Homo sapiens, HT-29, HT29, Colon
[11] = Homo sapiens, NCI-H460, H460, Lung (ER)
[12] = Homo sapiens, A-431, A431, Skin (ER)
[13] = Homo sapiens, MCF7, MCF-7, Breast (ER)
[14] = Homo sapiens, SK-BR-3, SKBR3, Breast (HER2)
[15] = Homo sapiens, BT-474, BT474, Breast (ER/PR/HER2)

Compound	GI50 ([1]; Homo sapiens, MCF-10A) [µM]	GI50 (Du145 (prostate) cells; Homo sapiens, DU-145) [µM]	GI50 (BT20 breast cancer cells; [9]) [µM]	GI50 (U87 (brain) cells; Homo sapiens) [µM]	GI50 (A2780 (ovary) cells; Homo sapiens) [µM]	GI50 (MIA (pancreas) cells; Homo sapiens) [µM]	GI50 ([2]; Homo sapiens) [µM]	GI50 (HT29 (colorectal) cells; [10]) [µM]	GI50 (H460 (lung) cells; [11]) [µM]	GI50 (T47D breast cancer cells; Homo sapiens) [µM]	GI50 (A431 (vulva/skin) cells; [12]) [µM]	GI50 (BE2-C (neuronal) cells; Homo sapiens, BE(2)-C) [µM]	GI50 [3, 13] [µM]	GI50 (SJ-G2 (brain) cells; Homo sapiens) [µM]	GI50 [4, 14] [µM]	GI50 [5, 15] [µM]	GI50 ([6]; Homo sapiens) [µM]	GI50 ([7]; Homo sapiens) [µM]	GI50 [1] [µM]	GI50 (Du145 (prostate) cells) [µM]	other results
O=c1c2cccc3cccc(c32)c2nc3cc(Cl)ccc3n12 [Compound 4, 11-Chloro-7H-benzo[de]benzo[4,5]imidazo[2,1-a]isoquinolin-7-one]	4.1 ± 0.2	12 ± 0.33	28 ± 3	18 ± 1.8	6 ± 0.32	31 ± 3.3	0.88 ± 0.17	18 ± 3.2	8.2 ± 1.92	8.6 ± 2.2	10 ± 2	10 ± 1.7	5.3 ± 0.39	8.8 ± 1.1	0.26 ± 0.07	> 50	0.81 ± 0.43	9 ± 1			GI50 ([8]; Homo sapiens, read-out: GI50 (range over cell lines and both compounds 3 and 4), ZR-75-1, SKBR3 and MDA-MB-468): 0.26 to 0.88 µM; greatest difference between growth inhibition in breast cancer cells and normal breast cells (fold) ([8]; SKBR3 vs MCF10A): 16 fold
3-Chloro-7H-benzo[de]benzo[4,5]imidazo[2,1-a]isoquinolin-7-one (10a) and 4-chloro-7H-benzo[de]benzo[4,5]imidazo[2,1-a]isoquinolin-7-one (10b) [Compound 10]																			4.2 ± 0.38	> 50	GI50 (BT20 breast cancer cells; BT20, Breast (TN)): 0.27 ± 0.12 µM; GI50 (U87 (brain) cells): 37 ± 5.8 µM; GI50 (A2780 (ovary) cells): 4.6 ± 0.25 µM; GI50 (MIA (pancreas) cells): 9.8 ± 3.1 µM; GI50 [2]: 0.0056 ± 0.0017 µM; GI50 (HT29 (colorectal) cells; HT29, Colon): 2.9 ± 0.18 µM; GI50 (H460 (lung) cells; H460, Lung (ER)): 5.7 ± 1.48 µM; GI50 (T47D breast cancer cells): 0.18 ± 0.019 µM; GI50 (A431 (vulva/skin) cells; A431, Skin (ER)): 0.15 ± 0.036 µM; GI50 (BE2-C (neuronal) cells): 7 ± 0.23 µM; GI50 ([3]; MCF-7, Breast (ER)): 0.14 ± 0.045 µM; GI50 (SJ-G2 (brain) cells): 4.8 ± 0.44 µM; GI50 ([4]; SKBR3, Breast (HER2)): 0.061 ± 0.024 µM; GI50 ([5]; BT474, Breast (ER/PR/HER2)): 0.56 ± 0.42 µM; GI50 [6]: 0.072 ± 0.03 µM; GI50 [7]: 29 ± 10.3 µM; selectivity relative to the normal cell line (fold, range over cell lines) ([8]; A431, MCF-7, T47D, ZR-75-1, SKBR-3, MDA-MB-468, BT20, BT474 vs MCF10A): 7.5 to 750 fold; GI50 ([8]; MCF-7, T47D, ZR-75-1, SKBR-3, MDA-MB-468, BT20, BT474, read-out: GI50 (range over cell lines)): 0.0056 to 0.56 µM; fold more potent than head group substituted analogues 3, 4, 6, 7, 8 and 9 ([8]; across the cell lines examined (Table 1)): > 10 fold
7-Oxo-7H-benzo[de]benzo[4,5]imidazo[2,1-a]isoquinoline-10-carbonitrile (9a) and 7-oxo-7H-benzo[de]benzo[4,5]imidazo[2,1-a]isoquinoline-11-carbonitrile (9b) [Compound 9]																			7.8 ± 1.62	45 ± 1.7	GI50 (BT20 breast cancer cells; BT20, Breast (TN)): 9.3 ± 8.4 µM; GI50 (U87 (brain) cells): 43 ± 4 µM; GI50 (A2780 (ovary) cells): 7 ± 0.64 µM; GI50 (MIA (pancreas) cells): 41 ± 9.5 µM; GI50 [2]: 0.074 ± 0.021 µM; GI50 (HT29 (colorectal) cells; HT29, Colon): 44 ± 6.3 µM; GI50 (H460 (lung) cells; H460, Lung (ER)): 41 ± 5.9 µM; GI50 (T47D breast cancer cells): 4.2 ± 0.73 µM; GI50 (A431 (vulva/skin) cells; A431, Skin (ER)): 1.1 ± 0.1 µM; GI50 (BE2-C (neuronal) cells): > 50 µM; GI50 ([3]; MCF-7, Breast (ER)): 25 ± 8.3 µM; GI50 (SJ-G2 (brain) cells): 26 ± 3.8 µM; GI50 ([4]; SKBR3, Breast (HER2)): 0.27 ± 0.018 µM; GI50 ([5]; BT474, Breast (ER/PR/HER2)): > 50 µM; GI50 [6]: 0.089 ± 0.04 µM; GI50 [7]: 38 ± 6 µM
O=c1c2cccc3cccc(c4n1Cc1ccccc1N=4)c32 [Compound 13, 7H,9H-benzo[4,5]isoquinolino[1,2-b]quinazolin-7-one]	38 ± 1.2	> 50	> 50	> 50	> 50	38 ± 1	36 ± 3.8	> 50	> 50	40 ± 3.3	43 ± 4.4	42 ± 1.5	32 ± 1.9	56 ± 3.7	47 ± 2.7	> 50	35 ± 1	> 50			
